Source: US7179825B2, “Retinoic acid mimetic anilides” (Janssen Pharmaceutica N.V., priority 1997, dated 2007)
pIC50: −log10 of the molar value.

What was measured:
[1] = tested on: metabolism of retinoic acid in human breast cancer cells; experiment: Inhibition of retinoic acid (RA) metabolism (Example C.1); format: cell-based; settings: MCF-7 human breast cancer cells, 3H-RA as substrate; concentration needed to reduce the amount of metabolites to 50% of the control
Text: The property to delay the metabolism of retinoic acid can be evidenced in various in vitro and in vivo experiments. A particular in vitro procedure is described in example C.1 and tests the inhibitory activity of the compounds of formula (I) on the metabolism of retinoic acid in human breast cancer cells. The compounds of the present invention were also effective in suppressing induced vaginal keratinization effects in ovariectomized rats as is described in example C.2.
Inhibition of Retinoic Acid (RA) Metabolism
MCF-7 human breast cancer cells were grown as stock cultures according to art-known protocols. One day before the experiment, RA is added to the stock cultures to stimulate RA-metabolism. At the start of the experiment, cell suspensions were incubated in a tissue culture medium containing ^3H-RA as the substrate. Different concentrations of the test compound (dissolved in 1% DMSO) were added to the incubation mixtures, and at the end of the incubation, the unmetabolized RA is separated from its polar metabolites. The fraction containing the polar ^3H-labelled metabolites was collected and counted in a scintillation counter. For each experiment, a control and a blank incubation were run in parallel. Table 22 list the IC50 value (defined as the concentration in M needed to reduce the amount of metabolites to 50% of the control).

Ovariectomized rats = experiment: Vaginal keratinization test on ovariectomized rats (Example C.2); format: in vivo; settings: estradiol undecylate induced keratinization, per os once daily on days 1-3, active dose = 50% of rats show complete suppression
Outline: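 Ovariectomized rats given s.c. estradiol undecylate (100 μg per 100 g body weight in sesame oil), then oral compound once daily on days 1-3 (vehicle PEG 200). Vaginas assessed histologically one day after last dose; lowest active dose (mg/kg) is the dose giving complete keratinization suppression in 50% of rats.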

Compound | pIC50 [1] | LAD (lowest active dose) (Ovariectomized rats)
CCC(CC)C(c1ccc(NC(=O)Cc2ccc3c(c2)OCO3)cc1)n1cncn1 (racemic) [Compound 5] | 9.57 | >2.50 mg/kg
CCC(CC)C(c1ccc(NC(=O)c2ccc(OC)c(OC)c2)cc1)n1cncn1 (racemic) [Compound 6] | 8.78 | 2.50 mg/kg
CCC(CC)C(c1ccc(NC(=O)Cc2ccc3c(c2)OCCO3)cc1)n1cncn1 (racemic) [Compound 7] | 9.10 | >2.50 mg/kg
CCC(CC)C(c1ccc(NC(=O)CCc2ccc(OC)c(OC)c2)cc1)n1cncn1 (racemic) [Compound 10] | 8.81 | 2.50 mg/kg
CCC(CC)C(c1ccc(NC(=O)C(O)c2ccc(Cl)cc2)cc1)n1cncn1 (racemic) [Compound 18, (±)-(A2)-4-chloro-N-[4-[2-ethyl)-1-(1H-1,2,4-triazol-1-yl)butyl]phenyl]-α-hydroxybenzeneacetamide] | 9.06 | 2.50 mg/kg
CCC(CC)C(c1ccc(NC(=O)c2ccccc2)cc1)n1ccnc1 (racemic) [Compound 22] | 8.98 | 2.50 mg/kg
CCC(CC)C(c1ccc(NC(=O)C(C)(C)O)cc1)n1ccnc1 (racemic) [Compound 24] | 8.86 | 2.50 mg/kg
CCC(CC)C(c1ccc(NC(=O)C2=COc3ccccc3O2)cc1)n1ccnc1 (racemic) [Compound 25] | 7.21 | 10.00 mg/kg
CCC(CC)C(c1ccc(NC(=O)c2cnccn2)cc1)n1ccnc1 (racemic) [Compound 27] | 9.63 | 5.00 mg/kg
CCC(CC)C(c1ccc(NC(=O)Cc2ccc3c(c2)OCO3)cc1)n1ccnc1 (racemic) [Compound 28] | 8.56 | 2.50 mg/kg
CCC(CC)C(c1ccc(NC(=O)c2ccc3c(c2)C(C)(C)CCC3(C)C)cc1)n1ccnc1 (racemic) [Compound 30] | 7.59 | >5.00 mg/kg
CCC(CC)C(c1ccc(NC(=O)C2=Cc3ccccc3OC2)cc1)n1ccnc1 (racemic) [Compound 31] | 8.58 | 5.00 mg/kg
CCC(CC)C(c1ccc(NC(=O)CCc2ccc(OC)c(OC)c2)cc1)n1ccnc1 (racemic) [Compound 32] | 9.16 | 5.00 mg/kg
CCOc1ccc(C(=O)Nc2ccc(C(C(CC)CC)n3ccnc3)cc2)cc1 (racemic) [Compound 35] | 8.65 | 2.50 mg/kg
CCC(CC)C(c1ccc(NC(=O)Cc2ccc3c(c2)OCCO3)cc1)n1ccnc1 (racemic) [Compound 36] | 8.84 | 5.00 mg/kg
CCC(CC)C(c1ccc(NC(=O)COc2ccccc2OC)cc1)n1ccnc1 (racemic) [Compound 37] | 9.00 | 5.00 mg/kg
CCC(CC)C(c1ccc(NC(=O)Cc2ccc3c(c2)C(C)(C)CCC3(C)C)cc1)n1ccnc1 (racemic) [Compound 38] | 8.98 | 5.00 mg/kg
CCOc1ccc(CCC(=O)Nc2ccc(C(C(CC)CC)n3ccnc3)cc2)cc1 (racemic) [Compound 39] | 9.98 | 0.60 mg/kg
CCC(CC)C(c1ccc(NC(=O)c2ccc(OC)nc2)cc1)n1ccnc1 (racemic) [Compound 45] | 9.76 | 2.50 mg/kg
CCC(CC)C(c1ccc(NC(=O)C2CCN(C(=O)c3ccccc3)CC2)cc1)n1ccnc1 (racemic) [Compound 46] | 8.71 | >2.50 mg/kg
CCC(CC)C(c1ccc(NC(=O)CN2CCOCC2)cc1)n1ccnc1 (racemic) [Compound 47] | 8.88 | 2.50 mg/kg
CCOc1ccc(CCCC(=O)Nc2ccc(C(C(CC)CC)n3ccnc3)cc2)cc1 (racemic) [Compound 48] | 9.24 | 2.50 mg/kg
CCC(CC)C(c1ccc(NC(=O)COc2ccccc2O)cc1)n1ccnc1 (racemic) [Compound 49] | 9.36 | 2.50 mg/kg
CCC(CC)C(c1ccc(NC(=O)CCCc2ccc(OC)c(OC)c2)cc1)n1ccnc1 (racemic) [Compound 52] | 9.04 | 2.50 mg/kg
CCC(CC)C(c1ccc(NC(=O)C2CCN(C(=O)OC(C)(C)C)CC2)cc1)n1ccnc1 (racemic) [Compound 53] | 8.67 | >2.50 mg/kg
CCC(CC)C(c1ccc(NC(=O)Cc2ccc3nc(N)sc3c2)cc1)n1ccnc1 (racemic) [Compound 58] | > 11.00 | 5.00 mg/kg

Compound | pIC50 [1] | LAD (lowest active dose) (Ovariectomized rats)
CCC(CC)C(c1ccc(NC(=O)Nc2nc3ccccc3s2)cc1)n1cncn1 (racemic) [Compound 63] | 8.17 | >5.00 mg/kg
CCC(CC)C(c1ccc(NC(=O)Nc2nc3ccccc3s2)cc1)n1ccnc1 (racemic) [Compound 64] | 8.18 | >5.00 mg/kg
CCC(CC)C(c1ccc(NC(=O)Cc2ccc(C)cc2)cc1)n1cncn1 (racemic) [Compound 65] | 9.42 | 5.00 mg/kg
CCC(CC)C(c1ccc(NC(=O)Cc2ccc(Cl)cc2)cc1)n1cncn1 (racemic) [Compound 66] | 9.45 | 2.50 mg/kg
CCC(CC)C(c1ccc(NC(=O)Cc2cccc(O)c2)cc1)n1cncn1 (racemic) [Compound 67] | 9.48 | 2.50 mg/kg
CCC(CC)C(c1ccc(NC(=O)Cc2ccc(F)cc2)cc1)n1cncn1 (racemic) [Compound 68] | 8.76 | 5.00 mg/kg
CCC(CC)C(c1ccc(NC(=O)Cc2ccc(O)cc2)cc1)n1cncn1 (racemic) [Compound 69] | 9.60 | 2.50 mg/kg
CCC(CC)C(c1ccc(NC(=O)Cc2cccc(OC)c2)cc1)n1cncn1 (racemic) [Compound 70] | 9.53 | 5.00 mg/kg
CCOc1ccc(CC(=O)Nc2ccc(C(C(CC)CC)n3cncn3)cc2)cc1 (racemic) [Compound 71] | 9.58 | >5.00 mg/kg
CCC(CC)C(c1ccc(NC(=O)Cc2ccc(O)c(OC)c2)cc1)n1cncn1 (racemic) [Compound 72] | 8.78 | 2.50 mg/kg
CCC(CC)C(c1ccc(NC(=O)Cc2ccc(OC)c(OC)c2)cc1)n1cncn1 (racemic) [Compound 73] | 9.33 | >2.50 mg/kg
CCOc1ccc(CC(=O)Nc2ccc(C(C(CC)CC)n3cncn3)cc2)cc1Cl (racemic) [Compound 75] | 9.38 | 2.50 mg/kg
CCOc1ccc(CC(=O)Nc2ccc(C(C(CC)CC)n3cncn3)cc2)cc1C (racemic) [Compound 76] | 9.23 | >2.50 mg/kg
CCC(CC)C(c1ccc(NC(=O)Cc2ccc(C)c(C)c2)cc1)n1cncn1 (racemic) [Compound 77] | 9.48 | 2.50 mg/kg
CCC(CC)C(c1ccc(NC(=O)Cc2ccc(OC)c(C)c2)cc1)n1cncn1 (racemic) [Compound 78] | 9.64 | 1.25 mg/kg
CCC(CC)C(c1ccc(NC(=O)Cc2ccc(O)c(Cl)c2)cc1)n1cncn1 (racemic) [Compound 79] | 10.47 | 2.50 mg/kg
CCC(CC)C(c1ccc(NC(=O)Cc2cc(OC)c(OC)c(OC)c2)cc1)n1cncn1 (racemic) [Compound 80] | 10.32 | >2.50 mg/kg
CCC(CC)C(c1ccc(NC(=O)Cc2cc(C)c(C)c(C)c2)cc1)n1cncn1 (racemic) [Compound 81] | 9.64 | 2.50 mg/kg
CCOc1ccc(CC(=O)Nc2ccc(C(C(CC)CC)n3cncn3)cc2)cc1OCC (racemic) [Compound 82] | 8.94 | 2.50 mg/kg
CCC(CC)C(c1ccc(NC(=O)Cc2ccc(Cl)c(OC)c2)cc1)n1cncn1 (racemic) [Compound 83] | 9.79 | >2.50 mg/kg
CCC(CC)C(c1ccc(NC(=O)Cc2ccc(C)c(OC)c2)cc1)n1cncn1 (racemic) [Compound 84] | 8.76 | >2.50 mg/kg
CCC(CC)C(c1ccc(NC(=O)Cc2ccc(Cl)cc2)cc1)n1ccnc1 (racemic) [Compound 87] | 9.55 | 1.25 mg/kg
CCC(CC)C(c1ccc(NC(=O)Cc2ccc(F)cc2)cc1)n1ccnc1 (racemic) [Compound 88] | 9.83 | 2.50 mg/kg
CCC(CC)C(c1ccc(NC(=O)Cc2ccccc2OC)cc1)n1ccnc1 (racemic) [Compound 89] | 9.88 | 2.50 mg/kg
CCC(CC)C(c1ccc(NC(=O)Cc2cccc(OC)c2)cc1)n1ccnc1 (racemic) [Compound 90] | 8.63 | 2.50 mg/kg
